In patent US20210299116A1, “METHODS FOR REDUCING ABNORMAL SCAR FORMATION” (CORNELL UNIVERSITY, priority 2018, published 2021):
Entries after “also recorded” stand apart in the source; their conditions may differ.

Tests used:
[1] = system: smooth muscle actin (SMA) in fibroblasts; experiment: TGF-β induced smooth muscle actin (SMA) in fibroblasts (Western blot, immunohistochemistry); type: cell-based; conditions: TGF-β stimulated fibroblasts
Description: Scar contracture is a painful aspect of hypertrophic scarring due to increased SMA in the fibroblasts. During the inflammatory phase of wound healing, the cytokine transforming growth factor β (TGF-β) is secreted and can activate fibroblasts to produce SMA.

HLF cells (fibroblasts) = experiment: in vitro gel contraction assay; type: cell-based; conditions: for TGF-β induced fibroblast contracture (gel contraction): TGF-β + RXD, 48 hour incubation
Description: Evaluation of fibroblasts contractility was performed as previously described by […] et al (Bio-protocol 8(18): e3021, 2018). Briefly, HLF cells are resuspended in 1 mg/ml collagen and then pipetted into 24 well plates. Collagen is allowed to solidify for 30 minutes at room temperature. Media (500 μl) is then added to each of the wells and the gels are dissociated from the walls of the well. Gels are treated and allowed to incubate for 48 hours at 37° C. and 5% CO2. After the 48 hour incubation, gels are stained with crystal violet stain in order to better visualize contraction. Images are analyzed using Image J software and the fold change compared to a no cell control is determined.

[2] = system: incisional wound in C57bl/6 mice; experiment: rodent incisional wound model, incision sutured with silk imbedded with drug; type: in vivo, mouse
Description: As there are no murine models for hypertrophic or keloid scarring, the inventors relied on a classic rodent incisional wound model consisting of a longitudinal para-vertebral incision 1-2 cm long through the entire thickness of the skin and cutaneous muscle. Wounds (WD) and size matched pieces of dorsal dermis (CTR) were excised and processed for light and polarized light microscopy: fixation, embedding, sectioning and stained with hematoxylin-eosin (inflammatory cells) and Gomori Trichrome (collagen staining), tensile strength measurements and qPCR.
In some experiments, a drug was delivered locally and directly to the wound. In some embodiments, the drug was impregnated in the wound closure material, silk suture. In some experiments, the drug was eluted into the wound during wound healing leading to closure and scar formation. Wound healing was monitored over 14 days.
Wounds (WD) and size matched pieces of dorsal dermis (CTR) were excised and processed for light microscopy: fixation, embedding, sectioning and stained with hematoxylin-eosin (inflammatory cells) and Gomori Trichrome (collagen staining).
Using wild type C57bl/6 mice, wound healing experiments were next performed where the incision was sutured with silk imbedded with ketotifen, a mast cell stabilizer. This way the drug could be delivered continuously and locally during wound healing.

[3] = 14 days post-incision, C57bl/6 mice, ketotifen-impregnated silk vs untreated silk

Structure (SMILES)	SMA staining of fibroblasts (immunohistochemistry) [1]	abundance of TGF-β induced SMA in fibroblasts (Western blot) [1]	abundance of TGF-β induced SMA in fibroblasts (Western blot) ([1]; listed as Roxadustat)	fibroblast gel contraction, change from control (HLF cells (fibroblasts); RXD added alone, vs control)	TGF-β induced fibroblast contracture (gel contraction) (HLF cells (fibroblasts))	TGF-β induced fibroblast contracture (gel contraction) (HLF cells (fibroblasts); listed as Roxadustat)	relative abundance of newly synthesized collagen III mRNA in excised wound scar (q-PCR) ([2]; 14-day, drug group compared to untreated)	inflammatory response to the incisional wound (immune cells in H&E stained scar) ([2]; 7 days post-incision, C57bl/6 mice, ketotifen eluted from silk suture vs untreated wound)	scar collagen content (Gomori trichrome stain) [2, 3]	scar width (Gomori trichrome stain) [2, 3]	tensile strength of the scar (peak tension, tensitometry) ([2]; 14 days post-incision, ketotifen-treated vs untreated mice)	newly synthesized collagen III in wound scar (birefringence microscopy) ([2]; ketotifen eluted from suture vs suture alone)
Cc1nc(C(=O)NCC(=O)O)c(O)c2ccc(Oc3ccccc3)cc12 [RXD, N-[(4-hydroxy-1-methyl-7-phenoxyisoquinolin-3-yl)carbonyl]glycine]	inhibited	inhibited	significantly reduces	significant changes	inhibited	significantly reduces	–	–	–	–	–	–
CN1CCC(=C2c3ccccc3CC(=O)c3sccc32)CC1 [ketotifen]	–	–	–	–	–	–	significantly less	lessens the inflammatory response	decreases	significantly less; also recorded: decreases	not affected	less newly synthesized collagen III; also recorded: decreases newly synthesized collagen (III)
